Test results reported in patent US20110319392A1, “Thiazole Sulfonamide And Oxazole Sulfonamide Kinase Inhibitors” (priority 2009, published 2011).

Key:
[1] = target: T1, EGFR (Homo sapiens, UniProt P00533); assay: EGFR substrate phosphorylation assay (HTRF); assay type: biochemical
T1 construct: made in house; host or cells: baculovirus expression system
Summary of the method: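 Baculovirus-expressed EGFR (0.8 nM) or ErbB2 (10 nM) in enzyme mix, preincubated 1 h at 20 °C with compound (0.00027–47.6 μM final), then 90 min at 20 °C with substrate mix of 20 μM ATP, 0.8 uM biotinylated Peptide C, MnCl2, MOPS pH 7.5. Phosphotyrosine by HTRF; pIC50 reported.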

[2] = test system: HN5 tumor cells; assay: Cell growth inhibition assay (CellTiter-Glo), HN5; assay type: cell-based, Human; settings: Homo sapiens, 72 h; 3 days incubation
Summary of the method: (§1)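 Readout was CellTiter-Glo luminescence (total ATP, surrogate for cell number) after 3-day exposure at 37° C, 5% CO2 to 1:3 serial compound dilutions in 0.2% final DMSO. Seeding was 500 cells/well; IC50 derived by 4-parameter fit relative to vehicle-treated wells.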

[3] = test system: BT474 tumor cells; assay: Cell growth inhibition assay (CellTiter-Glo), BT474; assay type: cell-based, Human; settings: 3 days incubation
[4] = test system: HT-29 tumor cells; assay: Cell growth inhibition assay (CellTiter-Glo), HT-29; assay type: cell-based, Human; settings: Homo sapiens
Summary of the method: as §1

T1 sequence (P00533 25-1210): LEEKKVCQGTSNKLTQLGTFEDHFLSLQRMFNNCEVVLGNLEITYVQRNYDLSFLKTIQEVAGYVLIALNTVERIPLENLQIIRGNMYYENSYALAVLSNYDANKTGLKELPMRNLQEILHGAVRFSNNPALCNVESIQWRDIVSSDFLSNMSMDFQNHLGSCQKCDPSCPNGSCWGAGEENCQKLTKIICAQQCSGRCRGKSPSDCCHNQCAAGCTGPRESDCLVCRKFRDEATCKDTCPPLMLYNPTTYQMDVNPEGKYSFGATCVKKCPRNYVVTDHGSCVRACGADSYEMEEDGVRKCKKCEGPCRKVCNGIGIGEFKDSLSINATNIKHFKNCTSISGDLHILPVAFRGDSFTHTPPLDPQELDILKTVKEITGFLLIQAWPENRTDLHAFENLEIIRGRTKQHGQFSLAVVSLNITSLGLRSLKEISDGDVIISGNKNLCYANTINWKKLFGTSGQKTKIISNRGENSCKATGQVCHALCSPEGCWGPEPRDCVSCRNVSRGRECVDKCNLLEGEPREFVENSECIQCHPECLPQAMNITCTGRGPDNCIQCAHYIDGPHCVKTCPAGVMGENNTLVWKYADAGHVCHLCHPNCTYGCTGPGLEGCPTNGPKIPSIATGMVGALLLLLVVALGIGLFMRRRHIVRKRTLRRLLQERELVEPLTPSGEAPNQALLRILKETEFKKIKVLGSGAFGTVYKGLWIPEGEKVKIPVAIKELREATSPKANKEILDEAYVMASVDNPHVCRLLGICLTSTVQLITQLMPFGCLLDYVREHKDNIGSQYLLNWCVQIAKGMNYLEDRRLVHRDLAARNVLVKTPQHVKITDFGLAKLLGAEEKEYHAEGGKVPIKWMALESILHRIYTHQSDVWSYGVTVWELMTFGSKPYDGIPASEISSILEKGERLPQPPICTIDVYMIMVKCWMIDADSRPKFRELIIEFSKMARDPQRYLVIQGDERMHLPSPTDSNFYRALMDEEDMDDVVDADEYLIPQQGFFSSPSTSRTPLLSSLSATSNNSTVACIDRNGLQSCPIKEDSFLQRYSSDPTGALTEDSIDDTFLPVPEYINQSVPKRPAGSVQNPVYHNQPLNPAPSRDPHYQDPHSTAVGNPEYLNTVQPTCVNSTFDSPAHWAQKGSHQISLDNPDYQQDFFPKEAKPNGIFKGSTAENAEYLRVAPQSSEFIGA

Row | Compound | IC50 [1] [µM] | IC50 [2] [µM] | IC50 ([3]; Homo sapiens, BT-474, 72 h) [µM] | IC50 [4] [µM] | EGFR Activity [1] | IC50 [3] [µM]
1 | CCc1nc(-c2cccc(CNS(=O)(=O)c3ccccc3)c2)c(-c2ccnc(Nc3ccc(N4CCOCC4)c(F)c3)n2)s1 [Example 34] | > 1 | > 1 | > 1 | > 1 |  | 
2 | CC(=O)N1CCN(c2ccc(Nc3nccc(-c4sc(C(C)C)nc4-c4cccc(NS(=O)(=O)c5cn(C)cn5)c4)n3)cn2)CC1 [Example 36] | < 0.1 | > 1 | > 1 | > 1 |  | 
3 | CC(C)c1nc(-c2cccc(NS(=O)(=O)C3CCCCC3)c2)c(-c2ccnc(Nc3ccc(N4CCOCC4)c(F)c3)n2)s1 [Example 38] | > 1 | > 1 | > 1 | > 1 |  | 
4 | CC(=O)N1CCN(c2ccc(Nc3nccc(-c4sc(C(C)C)nc4-c4cccc(NS(=O)(=O)C5CCCCC5)c4)n3)cn2)CC1 [Example 39] | 0.1 to 1 | > 1 | > 1 | > 1 |  | 
5 | Cc1nc(Cl)sc1S(=O)(=O)Nc1cccc(-c2nc(C(C)C)sc2-c2ccnc(Nc3ccc(N4CCOCC4)nc3)n2)c1 [Example 42] | > 1 | < 0.1 | > 1 | 0.1 to 1 |  | 
6 | CC(C)c1nc(-c2cccc(NS(=O)(=O)c3c(F)cccc3F)n2)c(-c2ccnc(Nc3ccc(N4CCOCC4)nc3)n2)s1 [Example 44] | > 1 | > 1 | > 1 | 0.1 to 1 |  | 
7 | CC(C)c1nc(-c2cncc(NS(=O)(=O)c3c(F)cccc3F)c2)c(-c2ccnc(Nc3ccc(N4CCOCC4)nc3)n2)s1 [Example 47] | > 1 | > 1 | > 1 | 0.1 to 1 |  | 
8 | COc1ccc(S(=O)(=O)Nc2cccc(-c3nc(C(C)C)sc3-c3ccnc(Nc4ccc(N5CCOCC5)nc4)n3)c2)cn1 [Example 49] | > 1 | > 1 | > 1 | < 0.1 |  | 
9 | CC(C)c1nc(-c2cccc(NS(=O)(=O)c3cccs3)c2)c(-c2ccnc(Nc3ccc(N4CCOCC4)nc3)n2)s1 [Example 51] | > 1 | 0.1 to 1 | > 1 | < 0.1 |  | 
10 | CC(C)c1nc(-c2cccc(NS(=O)(=O)c3cccnc3)c2)c(-c2ccnc(Nc3ccc(N4CCOCC4)nc3)n2)s1 [Example 52] | 0.1 to 1 | 0.1 to 1 | > 1 | < 0.1 |  | 
11 | CC(C)c1nc(-c2cccc(NS(=O)(=O)c3ccco3)c2)c(-c2ccnc(Nc3ccc(N4CCOCC4)nc3)n2)s1 [Example 53] | > 1 | < 0.1 | > 1 | < 0.1 |  | 
12 | CC(=O)N1CCN(c2ccc(Nc3nccc(-c4oc(C(C)C)nc4-c4cccc(NS(=O)(=O)c5c(F)cccc5F)c4)n3)cn2)CC1 [Example 56] | > 1 | > 1 | > 1 | 0.1 to 1 |  | 
13 | CC(C)c1nc(-c2cccc(NS(=O)(=O)c3c(F)cccc3F)c2)c(-c2ccnc(Nc3ccc(N4CCOCC4)c(F)c3)n2)o1 [Example 57] | 0.1 to 1 | 0.1 to 1 | > 1 | 0.1 to 1 |  | 
14 | Nc1nc(-c2cccc(NS(=O)(=O)c3c(F)cccc3F)c2)c(-c2ccnc(Nc3ccc(N4CCOCC4)nc3)n2)s1 [Example 62] | 0.1 to 1 | 0.1 to 1 | > 1 | 0.1 to 1 |  | 
15 | CCNc1nc(-c2cccc(NS(=O)(=O)c3ccccc3)c2)c(-c2ccnc(Nc3ccc(OCCN4CCCC4)c(F)c3)n2)s1 [Example 65] |  | 0.1 to 1 |  | 0.1 to 1 | +++ (at least one pIC50 measurement of greater than 7 against EGFR) | > 1
16 | CC(=O)N1CCN(c2ccc(Nc3nccc(-c4sc(C(C)C)nc4-c4cccc(NS(=O)(=O)c5cccc(C(F)(F)F)c5)c4)n3)cn2)CC1 [Example 70] | > 1 | > 1 | > 1 | > 1 |  | 

Row | Compound | IC50 [1] [µM] | IC50 [2] [µM] | IC50 ([3]; Homo sapiens, BT-474, 72 h) [µM] | IC50 [4] [µM] | EGFR Activity [1] | IC50 [3] [µM]
17 | CC(C)c1nc(-c2ccc(F)c(NS(=O)(=O)c3c(F)cccc3F)c2)c(-c2ccnc(Nc3ccc(N4CCN5CCOC[C@H]5C4)nc3)n2)s1 [Example 97] | 0.1 to 1 | > 1 | > 1 | > 1 |  | 
18 | CCOc1ccc(Nc2nccc(-c3sc(C(C)C)nc3-c3ccc(F)c(NS(=O)(=O)c4c(F)cccc4F)c3)n2)cc1N1CCN(CCF)CC1 [Example 98] | < 0.1 | > 1 | > 1 | > 1 |  | 
19 | CC(C)(C)c1nc(-c2ccc(F)c(NS(=O)(=O)c3c(F)cccc3F)c2)c(-c2ccnc(Nc3ccc(N4CCN(CCF)CC4)c(F)c3)n2)s1 [Example 99] | > 1 | > 1 | > 1 | > 1 |  | 
20 | CC(C)c1nc(-c2ccnc(NS(=O)(=O)c3c(F)cccc3F)c2)c(-c2ccnc(Nc3ccc(N4CCN(CCF)CC4)c(F)c3)n2)s1 [Example 100] | > 1 | < 0.1 | > 1 | 0.1 to 1 |  | 
21 | CC(C)c1nc(-c2cc(F)c(F)c(NS(=O)(=O)c3cccc(F)c3)c2)c(-c2ccnc(Nc3ccc(N4CCN(CCF)CC4)c(F)c3)n2)s1 [Example 101] | > 1 | 0.1 to 1 | > 1 | 0.1 to 1 |  | 
22 | CC(C)c1nc(-c2ccc(F)c(NS(=O)(=O)c3c(F)cccc3F)c2)c(-c2ccnc(Nc3ccncc3)n2)s1 [Example 102] | > 1 | > 1 | > 1 | 0.1 to 1 |  | 
23 | CN1CCC(c2nc(-c3ccc(F)c(NS(=O)(=O)c4c(F)cccc4F)c3)c(-c3ccnc(Nc4ccc(N5CCOCC5)nc4)n3)s2)CC1 [Example 106] | 0.1 to 1 | 0.1 to 1 | > 1 | 0.1 to 1 |  | 
24 | CC(C)c1nc(-c2ccc(F)c(NS(=O)(=O)c3ccccc3C#N)c2)c(-c2ccnc(Nc3ccc(N4CCOCC4)nc3)n2)s1 [Example 107] | 0.1 to 1 | > 1 | > 1 | 0.1 to 1 |  | 
25 | CCOc1ccc(Nc2nccc(-c3sc(N4CCCC4)nc3-c3cccc(NS(=O)(=O)c4c(F)cccc4F)c3)n2)cc1N1CCN(CCS(C)(=O)=O)CC1 [Example 109] | < 0.1 | > 1 | 0.1 to 1 | 0.1 to 1 |  | 
26 | CN(C)c1nc(-c2ccc(F)c(NS(=O)(=O)c3c(F)cccc3F)c2)c(-c2ccnc(Nc3ccc(N4CCN(S(C)(=O)=O)CC4)nc3)n2)s1 [Example 112] | 0.1 to 1 | > 1 | > 1 | 0.1 to 1 |  | 
27 | CC(C)c1nc(-c2ccc(F)c(NS(=O)(=O)c3c(F)cccc3F)c2)c(-c2ccnc(Nc3cccc(CCS(N)(=O)=O)c3)n2)s1 [Example 113] | 0.1 to 1 | > 1 | 0.1 to 1 | > 1 |  | 
28 | O=S(=O)(Nc1cc(-c2nc(N3CCCC3)oc2-c2ccnc(Nc3ccc(N4CCN(CCF)CC4)c(F)c3)n2)ccc1F)c1c(F)cccc1F [Example 114] | > 1 | > 1 | > 1 | > 1 |  | 
29 | Cc1cc(Nc2nccc(-c3sc(C(C)C)nc3-c3ccc(F)c(NS(=O)(=O)c4c(F)cccc4F)c3)n2)ccn1 [Example 116] | 0.1 to 1 | > 1 | > 1 | 0.1 to 1 |  | 
30 | CC(C)c1nc(-c2ccc(F)c(NS(=O)(=O)c3c(F)cccc3F)c2)c(-c2ccnc(Nc3ccnc(N4CCOCC4)c3)n2)s1 [Example 117] | 0.1 to 1 | 0.1 to 1 | > 1 | 0.1 to 1 |  | 
31 | CS(=O)(=O)CCN1CCN(c2ccc(Nc3nccc(-c4oc(N5CCCC5)nc4-c4ccc(F)c(NS(=O)(=O)c5c(F)cccc5F)c4)n3)cc2F)CC1 [Example 119] | > 1 | > 1 | > 1 | 0.1 to 1 |  | 
